The results in this text go back to patent publication US8017612B2, “Piperazine compound and use thereof as a HCV polymerase inhibitor” (priority 2006, dated 2011).

In experiment [1] the target is T1, HCV polymerase (NS5B) type 1a (Hepatitis C virus genotype 1a, UniProt P26664).
T1 construct: made in house; host or cells: Escherichia coli (by the 'similar method' of the 1b enzyme)
The experiment in a line: Assay of enzyme (HCV polymerase) inhibitory activity, type 1a enzyme. Format: biochemical, HCV type 1a (cloned from the blood of patients). Summed up:
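NS5B Δ47 C-term His6 (type 1a, 1.5 μg/ml); substrate RNA 5 μg/ml; ATP/GTP/CTP 50 μM, UTP 2 μM + [5,6-3H]UTP; Tris pH 7.5, MgCl2 5 mM; 25° C, 60 min. TCA/pyrophosphate stop, GF/B filter, scintillation. IC50 vs no-compound control.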

The target in experiment [2] is T2, HCV polymerase (NS5B) type 1b (Hepatitis C virus genotype 1b, UniProt P26663).
T2 construct: a region encoding NS5B (J Virol 1991 March, 65(3), 1105-13, 544 amino acids after deletion of 47 amino acids on the C-terminal); 6xHis (C); made in house; host or cells: Escherichia coli
Description: Assay of enzyme (HCV polymerase) inhibitory activity, type 1b enzyme. Format: biochemical, HCV BK strain (type 1b). The method, boiled down:
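Rxn: NS5B 1b (BK, ΔC47, His6) 0.5 μg/ml; substrate RNA 5 μg/ml; ATP/GTP/CTP 50 μM, UTP 2 μM + [5,6-3H]UTP; 20 mM Tris pH 7.5, 5 mM MgCl2, 50 mM NaCl, 1 mM EDTA/DTT. 25 °C, 60 min. Stop with TCA/pyrophosphate, filter, scintillation count; IC50 vs. untreated.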

[3] abbreviates: HCV polymerase inhibitory activity (IC50), 1a, type 1a enzyme 1.5 μg/ml, 25° C., 60 min.
Setting [4] is: HCV polymerase inhibitory activity (IC50), 1b, type 1b enzyme 0.5 μg/ml, 25° C., 60 min.
Setting [5] is: HCV polymerase inhibitory activity IC50, 1a, type 1a enzyme.
[6] abbreviates: HCV polymerase inhibitory activity IC50, 1b, type 1b enzyme.

Turning to `CCCc1ccc(CNC(=O)[C@H]2CN(C(=O)Cn3nnc(CC(=O)O)n3)CCN2S(=O)(=O)c2ccc(OC(F)(F)F)cc2)cc1` [Example 465, (2-{2-oxo-2-[(R)-3-(4-propyl-benzylcarbamoyl)-4-(4-trifluoromethoxy-benzenesulfonyl)-piperazin-1-yl]-ethyl}-2H-tetrazol-5-yl)-acetic acid], the IC50 in experiment [1] (setting [3]) and in experiment [2] (setting [4]) was under 100 nM in each case.

In the case of `CC(=O)N1CCN(S(=O)(=O)c2ccc(C(C)C)cc2)C(C(=O)NCc2ccc(C(=O)O)cc2)C1` (centres unmarked) [Example 99, 4-({[4-acetyl-1-(4-isopropyl-benzenesulfonyl)-piperazine-2-carbonyl]-amino}-methyl)-benzoic acid], the IC50 in experiment [1] (setting [3]) and in experiment [2] (setting [4]) was over 1000 nM each time.

Regarding `NC(=O)c1nncc2sc(N3CCN(S(=O)(=O)c4ccc(OC(F)(F)F)cc4)[C@@H](C(=O)NCc4ccc(OC(F)(F)F)cc4)C3)nc12` [Example 915, 2-[(R)-4-(4-trifluoromethoxy-benzenesulfonyl)-3-(4-trifluoromethoxy-benzylcarbamoyl)-piperazin-1-yl]-thiazolo[4,5-d]pyridazine-4-carboxylic acid amide], the IC50 in experiment [1] (setting [5]) and in experiment [2] (setting [6]) was under 100 nM in each case.

`CCC(F)(F)c1ccc(CNC(=O)[C@H]2CN(c3cnc4ncncc4n3)CCN2S(=O)(=O)c2ccc(OC(F)(F)F)cc2)cc1` [Example 707, (R)-4-pteridin-6-yl-1-(4-trifluoromethoxy-benzenesulfonyl)-piperazine-2-carboxylic acid 4-(1,1-difluoro-propyl)-benzylamide]: the half-inhibitory concentration (IC50) in experiment [1] (setting [5]) and in experiment [2] (setting [6]) was under 100 nM in each case.

Take `CC(=O)N1CCN(S(=O)(=O)c2ccc(CCC(=O)O)s2)[C@@H](C(=O)NCc2ccc(C(C)C)cc2)C1` [Example 283, 3-{5-[(R)-4-acetyl-2-(4-isopropyl-benzylcarbamoyl)-piperazine-1-sulfonyl]-thiophen-2-yl}-propionic acid]: the IC50 in experiment [1] (setting [3]) and in experiment [2] (setting [4]) was over 1000 nM in each case.

In the case of `CCC(F)(F)c1ccc(CNC(=O)[C@H]2CN(c3nc4cnncc4s3)CCN2S(=O)(=O)c2ccc(OC(F)(F)F)cc2)cc1` [Example 694, (R)-4-thiazolo[4,5-d]pyridazin-2-yl-1-(4-trifluoromethoxy-benzenesulfonyl)-piperazine-2-carboxylic acid 4-(1,1-difluoro-propyl)-benzylamide], the IC50 in experiment [1] (setting [5]) and in experiment [2] (setting [6]) was under 100 nM each time.

Consider `CCCc1ccc(CNC(=O)[C@H]2CN(c3nc4c(C(=O)OCC)cncc4s3)CCN2S(=O)(=O)c2ccc(CC)cc2)cc1` [Example 1064, 2-[(R)-4-(4-ethyl-benzenesulfonyl)-3-(4-propyl-benzylcarbamoyl)-piperazin-1-yl]-thiazolo[5,4-c]pyridine-7-carboxylic acid ethyl ester], for which the IC50 in experiment [1] (setting [5]) and in experiment [2] (setting [6]) was under 100 nM throughout.

On to `CN(C)CC(=O)N1CCN(S(=O)(=O)c2ccc(I)cc2)C(C(=O)NCc2ccc(N(C)C)cc2)C1` (centres unmarked) [Example 95, 4-(2-dimethylamino-acetyl)-1-(4-iodo-benzenesulfonyl)-piperazine-2-carboxylic acid 4-dimethylamino-benzylamide], for which the 50% inhibitory concentration (IC50) in experiment [1] (setting [3]) and in experiment [2] (setting [4]) was over 1000 nM throughout.

As to `CC(=O)N1CCN(S(=O)(=O)c2cccc(-c3ccccc3)c2)C(C(=O)NCc2ccc(C(F)(F)F)cc2)C1` (centres unmarked) [Example 42, 4-acetyl-1-(biphenyl-3-sulfonyl)-piperazine-2-carboxylic acid 4-trifluoromethyl-benzylamide], the IC50 in experiment [1] (setting [3]) and in experiment [2] (setting [4]) was over 1000 nM in each case.

On to `CCC(F)(F)c1ccc(CNC(=O)[C@H]2CN(C(=O)Nc3ccnc(C(=O)OC(C)(C)C)c3)CCN2S(=O)(=O)c2ccc(OC(F)(F)F)cc2)cc1` [Example 491, 4-{[(R)-3-[4-(1,1-difluoro-propyl)-benzylcarbamoyl]-4-(4-trifluoromethoxy-benzenesulfonyl)-piperazine-1-carbonyl]-amino}-pyridine-2-carboxylic acid tert-butyl ester], for which the 50% inhibitory concentration (IC50) in experiment [1] (setting [3]) and in experiment [2] (setting [4]) was under 100 nM in each case.

Regarding `O=C(NCc1ccc(OC(F)(F)F)cc1)[C@H]1CN(c2cnc3cncnc3n2)CCN1S(=O)(=O)c1ccc(Br)s1` [Example 789, (R)-1-(5-bromo-thiophene-2-sulfonyl)-4-pteridin-7-yl-piperazine-2-carboxylic acid 4-trifluoromethoxy-benzylamide], the concentration for half-maximal inhibition (IC50) in experiment [1] (setting [5]) and in experiment [2] (setting [6]) was under 100 nM in each case.

Regarding `CC(C)c1ccc(CNC(=O)[C@H]2CN(C(=O)CCCC(=O)O)CCN2S(=O)(=O)c2ccc(C(F)(F)F)cc2)cc1` [Example 190, 5-[(R)-3-(4-isopropyl-benzylcarbamoyl)-4-(4-trifluoromethyl-benzenesulfonyl)-piperazin-1-yl]-5-oxo-pentanoic acid], the half-inhibitory concentration (IC50) in experiment [1] (setting [3]) is over 1000 nM; in experiment [2] (setting [4]) it was 100 to 1000 nM.

As to `NC(=O)c1ncc2sc(N3CCN(S(=O)(=O)c4ccc(C(F)(F)F)cc4)[C@@H](C(=O)NCc4ccc(OC(F)(F)F)cc4)C3)nc2n1` [Example 1013, 2-[(R)-3-(4-trifluoromethoxy-benzylcarbamoyl)-4-(4-trifluoromethyl-benzenesulfonyl)-piperazin-1-yl]-thiazolo[4,5-d]pyrimidine-5-carboxylic acid amide], the half-maximal inhibitory concentration (IC50) in experiment [1] (setting [5]) and in experiment [2] (setting [6]) was under 100 nM in each case.

For the molecule `CCCc1ccc(CNC(=O)[C@H]2CN(c3nc(C)c(S(=O)(=O)NC)s3)CCN2S(=O)(=O)c2ccc(OC(F)(F)F)cc2)cc1` [Example 828, (R)-4-(4-methyl-5-methylsulfamoyl-thiazol-2-yl)-1-(4-trifluoromethoxy-benzenesulfonyl)-piperazine-2-carboxylic acid 4-propyl-benzylamide], the IC50 in experiment [1] (setting [5]) and in experiment [2] (setting [6]) was under 100 nM each time.

Take `CC(O)c1ncc2sc(N3CCN(S(=O)(=O)c4ccc(OC(F)(F)F)cc4)[C@@H](C(=O)NCc4ccc(OC(F)(F)F)cc4)C3)nc2n1` (stereo partly drawn) [Example 1060, (R)-4-[5-(1-hydroxy-ethyl)-thiazolo[4,5-d]pyrimidin-2-yl]-1-(4-trifluoromethoxy-benzenesulfonyl)-piperazine-2-carboxylic acid 4-trifluoromethoxy-benzylamide]: the half-maximal inhibitory concentration (IC50) in experiment [1] (setting [5]) and in experiment [2] (setting [6]) was under 100 nM in each case.

In the case of `CCC(F)(F)c1ccc(CNC(=O)[C@H]2CN(c3nc4ccncc4[nH]3)CCN2S(=O)(=O)c2ccc(OC(F)(F)F)cc2)cc1` [Example 756, (R)-4-(3H-imidazo[4,5-c]pyridin-2-yl)-1-(4-trifluoromethoxy-benzenesulfonyl)-piperazine-2-carboxylic acid 4-(1,1-difluoro-propyl)-benzylamide], the concentration for half-maximal inhibition (IC50) in experiment [1] (setting [5]) and in experiment [2] (setting [6]) was under 100 nM in each case.

With `CCCc1ccc(CNC(=O)[C@H]2CN(c3cnc4cccc(C(=O)O)c4n3)CCN2S(=O)(=O)c2ccc(CC)cc2)cc1` [Example 816, 3-[(R)-4-(4-ethyl-benzenesulfonyl)-3-(4-propyl-benzylcarbamoyl)-piperazin-1-yl]-quinoxaline-5-carboxylic acid], the IC50 in experiment [1] (setting [5]) and in experiment [2] (setting [6]) was under 100 nM each time.

Take `O=C(O)Cn1ncc2sc(N3CCN(S(=O)(=O)c4ccc(OC(F)(F)F)cc4)[C@@H](C(=O)NCc4ccc(OC(F)(F)F)cc4)C3)nc2c1=O` [Example 1106, {4-oxo-2-[(R)-4-(4-trifluoromethoxy-benzenesulfonyl)-3-(4-trifluoromethoxy-benzylcarbamoyl)-piperazin-1-yl]-4H-thiazolo[4,5-d]pyridazin-5-yl}-acetic acid]: the concentration for half-maximal inhibition (IC50) in experiment [1] (setting [5]) and in experiment [2] (setting [6]) was under 100 nM throughout.

Turning to `Cc1nc(N2CCN(S(=O)(=O)c3ccc(C(F)(F)F)cc3)[C@@H](C(=O)NCc3ccc(C(C)C)cc3)C2)sc1C(=O)OC(C)(C)C` [Example 5, 2-[(R)-3-(4-isopropyl-benzylcarbamoyl)-4-(4-trifluoromethyl-benzenesulfonyl)-piperazin-1-yl]-4-methyl-thiazole-5-carboxylic acid tert-butyl ester], the IC50 in experiment [1] (setting [3]) and in experiment [2] (setting [4]) was over 1000 nM each time.

As for `CC(=O)N1CCN(S(=O)(=O)c2ccc(C(C)C)cc2)[C@@H](C(=O)NCc2ccc(CO)cc2)C1` [Example 226, (R)-4-acetyl-1-(4-isopropyl-benzenesulfonyl)-piperazine-2-carboxylic acid 4-hydroxymethyl-benzylamide], the IC50 in experiment [1] (setting [3]) and in experiment [2] (setting [4]) was over 1000 nM each time.

In the case of `NC(=O)c1cncc2sc(N3CCN(S(=O)(=O)c4ccc(OC(F)(F)F)cc4)[C@@H](C(=O)NCc4ccc(OC(F)(F)F)cc4)C3)nc12` [Example 1123], the IC50 in experiment [1] (setting [5]) and in experiment [2] (setting [6]) was under 100 nM each time.

On to `CCOC(=O)c1nnc(NC(=O)N2CCN(S(=O)(=O)c3ccc(C(F)(F)F)cc3)[C@@H](C(=O)NCc3ccc(C(C)C)cc3)C2)o1` [Example 334, 5-{[(R)-3-(4-isopropyl-benzylcarbamoyl)-4-(4-trifluoromethyl-benzenesulfonyl)-piperazine-1-carbonyl]-amino}-[1,3,4]oxadiazole-2-carboxylic acid ethyl ester], for which the 50% inhibitory concentration (IC50) in experiment [1] (setting [3]) and in experiment [2] (setting [4]) was over 1000 nM in each case.
